Assay results: PubChem BioAssay (NCI)
Several values for one entry are separate records, joined by “and”; a condition that tells them apart may be missing. Identical values can stand only once.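 How tested: cells in 96-well plates exposed to compound for 48 hours at five concentrations. GI50 marks 50% less growth. At the TGI there is no net growth.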

Assays:
Assay in all cases: DTP human tumour cell line panel, 48 h
CCRF-CEM leukemia = system: CCRF-CEM leukemia
EKVX NSCLC = system: EKVX NSCLC
HL-60(TB) leukemia = system: HL-60(TB) leukemia
HT29 colon = system: HT29 colon
LOX IMVI melanoma = system: LOX IMVI melanoma
M14 melanoma = system: M14 melanoma
OVCAR-8 ovarian = system: OVCAR-8 ovarian
SW-620 colon = system: SW-620 colon
U251 CNS = system: U251 CNS
UACC-62 melanoma = system: UACC-62 melanoma

SMILES	GI50 (CCRF-CEM leukemia) [µM]	TGI (CCRF-CEM leukemia) [µM]	GI50 (EKVX NSCLC) [µM]	TGI (EKVX NSCLC) [µM]	GI50 (HL-60(TB) leukemia) [µM]	TGI (HL-60(TB) leukemia) [µM]	GI50 (HT29 colon) [µM]	TGI (HT29 colon)	GI50 (LOX IMVI melanoma) [µM]	TGI (LOX IMVI melanoma) [µM]	GI50 (M14 melanoma)	TGI (M14 melanoma) [µM]	GI50 (OVCAR-8 ovarian)	TGI (OVCAR-8 ovarian)	GI50 (SW-620 colon) [µM]	TGI (SW-620 colon)	GI50 (U251 CNS) [µM]	TGI (U251 CNS) [µM]	TGI (UACC-62 melanoma)	GI50 (UACC-62 melanoma) [µM]
O=C1c2cccnc2-c2nc(-c3ccncc3)cc3c2c1nc1ccccc13	8.03	39.6	24.3	> 100	12.3	89.6	17.9	31.7 µM	16.1	43.6	17.8 µM	31.6	10.5 µM	24 µM	12.7	41.6 µM	12	64.5		
CC1(C)OC2COC3(CNO)OC(C)(C)OC3C2O1 (stereo not given)		> 100		> 100		30.2		> 100 µM		> 100		> 100		> 100 µM		> 100 µM		> 100	> 100 µM	
CC1CCCc2c1nn(C(=O)/C=C(\N)c1ccccc1)c2N (stereo not given)	6.8	> 100	16.5	44.1	5.96	44.3	16.8	> 100 µM	6.29	> 100	12.3 µM	> 100	8.5 µM	> 100 µM	6.71	> 100 µM	5.06	> 100	41.5 µM	9.45
C=CCC1[C@@H](C(C)(C)C(C(C)=O)C(=O)C(=O)OC)OC(C(C)(C)C)N1C(=O)OC (stereo not given in full)		> 100		> 100				> 100 µM				> 100		> 100 µM				> 100	> 100 µM	
COC(=O)/C(C#N)=C1\CCC(C(=O)OC)N1C (stereo not given)		> 100		> 100		> 100						> 100		> 100 µM				> 100	> 100 µM	
O=c1ncccn1C1C=C(CO)C(O)C1O (stereo not given)		> 50		> 50		> 50		> 50 µM		> 50		> 50				> 50 µM		> 50		
NC(N)=NS(=O)(=O)c1ccc(NC(=O)c2cccc3c(Nc4ccc(S(N)(=O)=O)cc4)c4ccccc4nc23)cc1		> 100		> 100				> 100 µM		> 100		> 100		> 100 µM		> 100 µM		> 100	> 100 µM	
COc1ccc(CC(C)C(C)Cc2ccc(OC)c(OC)c2)cc1OC (stereo not given)			986	> 1400	> 1400	> 1400	> 1400	> 1400 µM	> 1400	> 1400	> 1400 µM	> 1400	> 1400 µM	> 1400 µM	> 1400	> 1400 µM	802	> 1400	> 1400 µM	1130
COc1cc2cnc3c4ccccc4ccc3c2cc1OC		> 100		> 100				> 100 µM				> 100		> 100 µM		> 100 µM		> 100	> 100 µM	
CCOC(=O)C(=O)Nc1ccccc1C(F)(F)F				> 100				> 100 µM		> 100		> 100		> 100 µM		> 100 µM		> 100	> 100 µM	
C=CCSc1nc2ccccc2c(=O)n1Cc1ccco1				> 100				> 100 µM		> 100		> 100		> 100 µM		> 100 µM		> 100	> 100 µM	
CCN(CC)CCNC(=O)c1cn2ncnc(Oc3ccc(NC(=O)Nc4ccc(Cl)c(C(F)(F)F)c4)c(F)c3)c2c1C	1.41	4.29	1.92	3.34			0.834	2.45 µM	1.3	2.62	1.58 µM	3.24	1.95 µM	3.96 µM	1.91	3.5 µM	1.59	3.07	3.15 µM	1.68
c1ccc(Cn2cnc3ccc(-c4nc(-c5ccc6c(c5)ncn6C5CCCCC5)cn5ccnc45)cc32)cc1	2.18	> 100			2.88	6.65							2.6 µM	6.54 µM						
CCC1=C[C@@H]2CN(C1)Cc1c([nH]c3ccccc13)[C@@](C(=O)OC)(c1cc3c(cc1OC)N(C)[C@H]1[C@@](O)(C(=O)OC)[C@H](OC(C)=O)[C@]4(CC)[C@@H]5C[C@@H]5CN5CC[C@]31[C@@H]54)C2	< 0.005				< 0.005		< 0.005	0.8 µM and 1.06 µM	< 0.005		< 0.005 µM and 0.0119 µM		< 0.005 µM and 0.0292 µM	6.9 µM and 12.7 µM	< 0.005	9.16 µM and 21 µM	< 0.005	0.671	6.39 µM and 16.9 µM	< 0.005
O=C(NC12CC3CC(CC(C3)C1)C2)C(=O)c1c[nH]c2ccc(Cl)cc12		> 100		> 100		> 100		> 100 µM		84.8		> 100						> 100	> 100 µM	
C[C@H]1[C@H](C)CC[C@]2(C(=O)NCCNCCN)CC[C@]3(C)C(=CC[C@@H]4[C@@]5(C)CCC(=O)C(C)(C)[C@@H]5CC[C@]43C)[C@H]12			1.58	3.02					1.71	3.13	1.79 µM	3.41			1.84	3.47 µM	1.66	3.17	2.96 µM	1.6
CC(CC(=O)Nc1ccc(NC(=O)CC(C)N=NC(N)=S)cc1)N=NC(N)=S (stereo not given)		> 100		> 100		> 100		> 100 µM		> 100		> 100		> 100 µM					> 100 µM	

SMILES	GI50 (CCRF-CEM leukemia) [µM]	TGI (CCRF-CEM leukemia) [µM]	GI50 (EKVX NSCLC) [µM]	TGI (EKVX NSCLC) [µM]	GI50 (HL-60(TB) leukemia) [µM]	TGI (HL-60(TB) leukemia) [µM]	GI50 (HT29 colon) [µM]	TGI (HT29 colon)	GI50 (LOX IMVI melanoma) [µM]	TGI (LOX IMVI melanoma) [µM]	GI50 (M14 melanoma)	TGI (M14 melanoma) [µM]	GI50 (OVCAR-8 ovarian)	TGI (OVCAR-8 ovarian)	GI50 (SW-620 colon) [µM]	TGI (SW-620 colon)	GI50 (U251 CNS) [µM]	TGI (U251 CNS) [µM]	TGI (UACC-62 melanoma)	GI50 (UACC-62 melanoma) [µM]
CN(C)Cc1c[nH]c2c(NCCN)c3c(c(NCCN)c12)C(=O)c1ccccc1C3=O	1.06	8.93	2.9	9.36			3.65	26.5 µM	0.556	1.88	3.51 µM	16.9	0.726 µM	11 µM	2.35	7.87 µM	0.394	1.87	4.18 µM	1.44
CC(=O)N[C@H](C(=O)N[C@@H](CCCNC(=N)N)C(=O)N[C@@H](CCCCN)C(=O)N[C@@H](CCCNC(=N)N)C(=O)N[C@]1(C)CCCCCC/C=C\CCC[C@@](C)(C(=O)N[C@@H](CCCNC(=N)N)C(=O)N[C@@H](CCC(=O)O)C(=O)N[C@@H](CC(C)C)C(=O)N[C@H](C(=O)N[C@@H](CCC(=O)O)C(N)=O)C(C)C)NC(=O)[C@H](CCC(N)=O)NC(=O)[C@H](CC(C)C)NC(=O)[C@H](CC(C)C)NC(=O)[C@H](CCCNC(=N)N)NC(=O)[C@H](CCCNC(=N)N)NC(=O)[C@H](CC(C)C)NC1=O)C(C)C	7.28	26.7	1.75	23.2	5.19	18.5	7.91	41.3 µM	10.1	43	2.13 µM	27.6	1.6 µM	> 50 µM	7.84	20.2 µM	3.79	36.6		
CCCCCCCCCCCCCCCCCCNC(=O)[C@H]1CSC(c2cccs2)N1 (stereo not given in full)	0.372	2.03			0.919	2.06	1.46	4.2 µM	0.834	2.02	0.868 µM	1.66	1.31 µM	3.34 µM	0.881	1.91 µM	0.929	1.74	1.69 µM	0.908
CC1(c2ccccc2)CC(c2ccccc2)=NO1 (stereo not given)		> 100		> 100		> 100		> 100 µM				> 100		> 100 µM		> 100 µM		> 100	> 100 µM	
COc1ccc(Nc2nc3ccccc3nc2-c2cccs2)cc1		> 100		> 100		> 100				> 100		> 100		> 100 µM		> 100 µM		> 100	> 100 µM	
C#CCC(N)(CO)C(=O)O (stereo not given)				> 100		> 100		> 100 µM		> 100		> 100		> 100 µM		> 100 µM		> 100	> 100 µM	
CCSc1nc(N)c2cn[nH]c2n1			51.4	> 100			29.4	81.9 µM	30.9	> 100	33.8 µM	> 100	48.7 µM	> 100 µM	31.7	> 100 µM	43.1	> 100	38.9 µM	18
COc1ccc(-c2nnc(N3CCN(C(=O)CN4CCN(c5ccc(OC)cc5)CC4)CC3)nc2-c2ccc(OC)cc2)cc1	3.02	6.06	7.86	> 65.9	1.88	6.5	3.39	10.8 µM			2.6 µM	6.28					5.31	66.1	53.1 µM	12.1
NC(=O)/C=C/C(=O)O		> 5000				> 5000		> 5000 µM		> 5000		> 5000		> 5000 µM		> 5000 µM		> 5000	> 5000 µM	
O=C(O)CCC(NC(=S)S)C(=O)O.[Na+].[Zn+2] (stereo not given)	> 50	> 50			> 50	> 50	> 50	> 50 µM	> 50	> 50	> 50 µM	> 50	> 50 µM	> 50 µM	> 50	> 50 µM	> 50	> 50	> 50 µM	> 50
CC1(Cc2ccccc2)NC(=S)NC1=O (stereo not given)				> 100		> 100		> 100 µM		> 100		> 100		> 100 µM		> 100 µM		> 100		
C[C@H](Cn1ncnn1)Nc1ncc2cc(Oc3ccc(F)cc3F)c(=O)n(C)c2n1	> 25	> 25			> 25	> 25	> 25	> 25 µM	> 25	> 25	> 25 µM	> 25	> 25 µM	> 25 µM	> 25	> 25 µM	> 25	> 25	> 25 µM	> 25
O=c1c(Cl)c(Cl)cnn1CCc1ccncc1		88.8		36.2		87.1		31.6 µM		33.7		30.7		43.1 µM		41.2 µM			39.8 µM	
Cn1cc(-c2csc(-c3cn(C)c4ccccc34)n2)c2cnccc21	1.78	3.86	1.56	3.39	1.94	4.09	1.98	3.71 µM			1.51 µM	2.96	2.68 µM	6.7 µM	1.85	3.63 µM	1.86	3.45	3.25 µM	1.72
Cn1c2ccccc2c2c(=O)c3ccccc3[nH]c21			44.1	> 100	70.6	> 100	54	> 100 µM	44.2	> 100			> 100 µM	> 100 µM	40.7	> 100 µM	35.8	> 100	> 100 µM	69.7
O=c1c2c3c(sc2n2c(-c4cc(-c5ccccc5)nn4-c4ccccc4)nnc2n1Cc1ccccc1)CCCC3			> 100	> 100					> 100	> 100							> 100	> 100	> 100 µM	> 100
O=C(c1ccc2ccccc2c1)c1c(C(F)(F)F)n([O-])c2ccc(Cl)cc2[n+]1=O			1.74	3.17	1.59	3.29	1.52	2.93 µM	0.195	0.375	1.64 µM	3.05	1.55 µM	2.91 µM	1.41	2.7 µM	1.67	3.03	3.08 µM	1.71
